US20240247031A1, “COMPOSITION FOR TREATING CANCER CONTAINING TELOMERASE-TARGETING GNRH ANTAGONIST-DERIVED PEPTIDE HS1002” (Research & Business Foundation Sungkyunkwan University, priority 2023, published 2024)

Key:
[1] = system: A549; experiment: MTT cytotoxicity on various cancer cells (Table 1); type: cell-based, human; conditions: lung cancer cell line A549; MTT, 48 h
Description: (§1) To evaluate anticancer activities of the produced peptides on various types of cancer cells, MTT analysis was performed. Human prostate cancer cell lines (LNCaP, PC3, and DU145), human breast cancer cell lines (MDA-MB-231 and MCF-7), lung cancer cell line (A549), and ovarian cancer cell line (SKOV3) were cultured in RPMI media supplemented with 1% penicillin/streptomycin and 1% fetal bovine serum (all from Life Technologies, Grand Island, NY). The cells were seeded in 96-well plates containing 100 μL of growth media for 24 h. The media were removed, and then 100 μL of the peptide (solvent DPBS) at each concentration was added to each well and incubated at 37° C. for 48 h. After incubation for 48 h, 100 μL of MTT reagent was added to each well. The cells were incubated at 37° C. for 4 h, and then the supernatant was removed. Formazan crystals were dissolved in 100 μL of DMSO with gentle stirring at 37° C. for 10 min. The absorbance per well was measured at 540 nm using a VERSA max microplate reader (Molecular Devices Corp.).

[2] = system: DU145; experiment: MTT cytotoxicity on various cancer cells (Table 1); type: cell-based, human; conditions: prostate cancer cell line DU145; MTT, 48 h
Description: as §1

[3] = system: SKOV3; experiment: MTT cytotoxicity on various cancer cells (Table 1); type: cell-based, human; conditions: ovarian cancer cell line SKOV3; MTT, 48 h
Description: as §1

[4] = system: PC3; experiment: MTT cytotoxicity on various cancer cells (Table 1); type: cell-based, human; conditions: prostate cancer cell line PC3; MTT, 48 h
Description: as §1

[5] = system: MC38 tumor; experiment: MC38 syngeneic mouse tumor model (FIG. 19); type: in vivo; conditions: 1 mg/kg s.c. every day
Description: All mice were purchased from Central Lab Animal Inc. ([…]). They were raised in a 12 h environmental light/dark cycle with controlled temperature (22±2° C.) conditions. The experimental protocol was approved by the Sungkyunkwan University Institutional Animal Care and Use Committee (SKKUIACUC2021-06-27-1, SKKUIACUC2023-01-07-1). For the establishment of tumors, LNCaP (1×10^7), MC38 (2×10^5), and 4T1 (1×10^6) suspended in serum-free media containing 50% Matrigel was subcutaneously administered in the right flank of mice, respectively. The tumor volumes (V) were calculated using a caliper and the standard equation: V (mm^3)=0.52 (ab^2) (a=length, b=width). Once the tumor reached 100-200 mm^3, the mice were randomly divided into different groups and subcutaneously injected with a vehicle or each peptide every day.
The sequences of the TERT peptide are highly conserved in human and mouse, indicating its potential translatability to mouse cancer. […] Hot tumors are generally more responsive to immunotherapy. In contrast, ‘Cold’ tumors such as the 4T1 tumor model lack infiltrating T cells and often have a low tumor mutational burden. Without a pre-existing adaptive immune response, cold tumors are insensitive to immunotherapy. […]

[6] = molecular target: T1, HEK293-GnRHR cells (Homo sapiens, UniProt P30968); experiment: CRE-luciferase reporter assay; type: cell-based
T1 construct: GFP; expressed in transfected cells
T1 sequence (P30968 1-328): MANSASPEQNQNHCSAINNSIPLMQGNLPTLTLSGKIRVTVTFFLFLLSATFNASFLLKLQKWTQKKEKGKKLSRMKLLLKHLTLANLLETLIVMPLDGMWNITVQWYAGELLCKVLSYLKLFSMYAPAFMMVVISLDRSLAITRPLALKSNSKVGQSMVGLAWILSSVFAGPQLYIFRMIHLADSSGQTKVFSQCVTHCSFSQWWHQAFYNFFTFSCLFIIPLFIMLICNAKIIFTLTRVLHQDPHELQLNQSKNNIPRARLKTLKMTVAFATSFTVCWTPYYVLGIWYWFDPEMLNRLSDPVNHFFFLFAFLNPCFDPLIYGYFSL
Description: Human embryonic kidney cell line (HEK293), and mouse cancer cell lines (MC38, 4T1) were purchased from the American Type Culture Collection (Manassas, VA, USA). All cell lines were grown in Dulbecco's Modified Essential Medium (DMEM) or Roswell Park Memorial Institute (RPMI) 1640 supplemented with 10% FBS, 100 U/mL penicillin, and 100 μg/mL streptomycin (WelGENE, Daegu, South Korea) in a humidified atmosphere of 5% CO2 at 37° C. To obtain GnRHR-overexpressing HEK293 (HEK293-GnRHR) cells, transfection of the pCMV-AC-GFP-GnRHR vector (HEK293-GnRHR) was performed using Lipofectamine™ 3000 according to the manufacturer's instructions (Cat. 100022052, Thermo Fisher Scientific, Waltham, MA, USA). Colonies of geneticin-resistant cells were selected by adding G418 (800 μg/mL, Sigma) to the culture medium. The HEK293-pCMV-AC-GFP vector (HEK293-Vector) cells were used as a mock-transfection group.
The HEK293-pCMV6-AC-GFP and HEK293-GnRHR cells (4×10^4 cells/well) were grown in 96-well plates and co-transfected with a luciferase reporter plasmid containing a cAMP response element (CRE) using Lipofectamine 3000 (Life Technologies). The transfected cells were exposed to different concentrations of peptide for 24 h, and the promoter activity was measured by a dual-luciferase reporter assay system (BPS Bioscience). The firefly and Renilla luciferase activities were measured using a microplate luminometer (Thermo, Varioskan LUX Multimode Microplate Reader). The calculation of relative luciferase activities involved the normalization of the firefly luciferase activity […].

With `CCNC(=O)[C@@H]1CCCN1C(=O)[C@@H](NC(=O)[C@H](Cc1ccccc1)NC(=O)[C@H](CCCNC(=N)N)NC(=O)[C@H](CC(C)C)NC(=O)[C@H](CCCNC(=N)N)NC(=O)[C@H](Cc1ccc(O)cc1)NC(=O)[C@H](CO)NC(=O)[C@H](Cc1c[nH]c2ccccc12)NC(=O)[C@H](Cc1c[nH]cn1)NC(=O)[C@@H]1CCC(=O)N1)[C@@H](C)CC` [HS1002] the “Cytotoxicity (IC50) A549” value [1] was 7.94 ± 0.07 µg/mL, the “Cytotoxicity (IC50) DU145” value [2] was 5.23 ± 0.65 µg/mL and the “Cytotoxicity (IC50) SKOV3” value [3] was 4.91 ± 0.41 µg/mL. For the same molecule, the “Cytotoxicity (IC50) PC3” value [4] was 7.56 ± 0.61 µg/mL, the tumor volume [5] was “diminished” and the tumor weight [5] was “diminished”. For the same molecule, the “CRE-luciferase activity compared to the control” value ([6]; 10 μM) was 2 fold and the “cAMP-mediated promoter binding activity (CRE-luciferase), concentration dependence” value ([6]; 24 h) was “concentration-dependently enhanced”.
